# Laboratory results taken from patent publication US20100285959A1, “HERBICIDAL MIXTURES” (priority 2006, published 2010).
# Legend:
# redroot pigweed (AMARE) = assay: Test 1 field trial, preemergence; type: in vivo, Amaranthus retroflexus; details: g a.i./ha: Atrazine 1680, S-Metolachlor 1870
# Description: (§1) Corn seeds (hybrid ‘Pioneer 34N43’) were planted in mid spring season, 3.8 cm deep in a silt loam soil having 4.6% organic matter and a pH of 6. Plots were 10.7 m long by 1.5 m wide with rows spaced 76 cm apart. Seeds were spaced 18 cm apart within the rows. The field was managed using conventional tillage practices. […] Results are summarized in Table 1 and are the means of the three replicates. […] Colby's Equation (Colby, S. R. “Calculating Synergistic and Antagonistic Responses of Herbicide Combinations,” Weeds, 15(1), pp 20-22 (1967)) calculates the expected additive effect of herbicidal mixtures, and for two active ingredients is of the form:
# (§2) Pa+b=Pa+Pb−(PaPb/100) • wherein Pa+b is the percentage effect of the mixture expected from additive contribution of the individual components, • Pa is the observed percentage effect of the first active ingredient at the same use rate as in the mixture, and • Pb is the observed percentage effect of the second active ingredient at the same use rate as in the mixture.
# [1] = system: ivyleaf morningglory (IPOHE); assay: Test 8 field trial, preemergence; type: in vivo, Ipomoea hederacea; details: g a.i./ha: Cpd 2 100, Atrazine 1680, S-Metolachlor 1870
# Description: (§3) Corn seeds (hybrid ‘Pioneer 31G96’) were planted in mid spring season, 3.8 cm deep in a clay loam soil having 2% organic matter and a pH of 6.6. Plots were 6.1 m long by 3.0 m wide with rows spaced 76 cm apart. Seeds were spaced 15 cm apart within the rows. The field was managed using conventional tillage practices. […] A few of the weed species could not be evaluated at every timing. […] Results are the means of the three replicates.
# Surinam grass (BRADC) = assay: Test 11 field trial, preemergence; type: in vivo, Brachiaria decumbens; set-up: scale not given here
# Description: (§4) Corn seeds (hybrid ‘Pioneer 3041’) were planted in mid spring season, 5 cm deep in a clay soil having 2.6% organic matter and a pH of 5.6. Plots were 8 m long by 1.5 m wide with rows spaced 80 cm apart. Seeds were spaced 15 cm apart within the rows. The field was managed using conventional tillage practices. […] Treatments consisted of Compound 2 or
# (§5) Goosegrass was not evaluated 16 or 91 days after application.
# corn (ZEAMD) [2] = assay: Test 1 field trial, preemergence; type: in vivo, Zea mays ssp. indentata; set-up: scale not given here; details: g a.i./ha: Atrazine 1680, S-Metolachlor 1870
# Description: as §1, §2
# common waterhemp (AMATA) = assay: Test 10 field trial, preemergence; type: in vivo, Amaranthus tamariscinus; details: 28 DAA; g a.i./ha: Cpd 2 100, Atrazine 1680, S-Metolachlor 1870
# Description: (§6) Corn seeds (hybrid ‘Pioneer 33P65 RR’) were planted in mid spring season, 2.5 cm deep in a silt loam soil. Plots were 9.1 m long by 3.0 m wide with rows spaced 76 cm apart. The field was managed using conventional tillage practices. […] Results are the means of the three replicates.
# corn (ZEAMD) [3] = assay: Test 10 field trial, preemergence; type: in vivo, Zea mays ssp. indentata; details: 28 DAA; g a.i./ha: Cpd 2 100, Atrazine 1680, S-Metolachlor 1870
# Description: as §6
# [4] = system: Ipomoea grandiflora (IPOGF); assay: Test 11 field trial, preemergence; type: in vivo
# Description: as §4, §5
# [5] = system: Pennsylvania smartweed (POLPY); assay: Test 1 field trial, preemergence; type: in vivo, Polygonum pensylvanicum; details: g a.i./ha: Atrazine 1680, S-Metolachlor 1870
# Description: as §1, §2
# [6] = system: common lambsquarters (CHEAL); assay: Test 6 field trial, postemergence; type: in vivo, Chenopodium album; details: 1120 g a.i./ha
# Description: Corn seeds (hybrid ‘Pioneer 35Y62’) were planted in mid spring season, 3.8 cm deep in a silt loam soil having 4% organic matter and a pH of 5.8. Plots were 10.7 m long by 1.5 m wide with rows spaced 76 cm apart. Seeds were spaced 18 cm apart within the rows. The field was managed using conventional tillage practices. […] All treatments included a surfactant except glufosinate treatments, both alone and in combination. […] Results are summarized in Table 6 and are the means of the three replicates.
# giant foxtail (SETFA) = assay: Test 10 field trial, preemergence; type: in vivo, Setaria faberi; details: 28 DAA; g a.i./ha: Cpd 2 100, Atrazine 1680, S-Metolachlor 1870
# Description: as §6
# corn (ZEAMD) [7] = assay: Test 8 field trial, preemergence; type: in vivo, Zea mays ssp. indentata; details: g a.i./ha: Cpd 2 100, Atrazine 1680, S-Metolachlor 1870
# Description: as §3
# common blackjack (BIDPI) = assay: Test 11 field trial, preemergence; type: in vivo, Bidens pilosa; set-up: scale not given here
# Description: as §4, §5
# alexandergrass (BRAPL) = assay: Test 11 field trial, preemergence; type: in vivo, Brachiaria plantaginea; set-up: scale not given here
# Description: as §4, §5
# [8] = system: common lambsquarters (CHEAL); assay: Test 1 field trial, preemergence; type: in vivo, Chenopodium album; details: g a.i./ha: Atrazine 1680, S-Metolachlor 1870
# Description: as §1, §2
# [9] = 16 DAA, atrazine 1500 or metolachlor 2500 g a.i./ha alone
# [10] = 30 DAA, atrazine 1500 or metolachlor 2500 g a.i./ha alone
# [11] = 44 DAA, atrazine 1500 or metolachlor 2500 g a.i./ha alone
# [12] = 62 DAA, atrazine 1500 or metolachlor 2500 g a.i./ha alone
# [13] = 91 DAA, atrazine 1500 or metolachlor 2500 g a.i./ha alone
# [14] = 16 DAA, Cpd 2/Cpd 1 at 62 g a.i./ha, alone or + atrazine 1500 or metolachlor 2500
# [15] = 16 DAA, Cpd 2/Cpd 1 at 125 g a.i./ha, alone or + atrazine 1500 or metolachlor 2500
# [16] = 30 DAA, Cpd 2/Cpd 1 at 62 g a.i./ha, alone or + atrazine 1500 or metolachlor 2500
# [17] = 30 DAA, Cpd 2/Cpd 1 at 125 g a.i./ha, alone or + atrazine 1500 or metolachlor 2500
# [18] = 44 DAA, Cpd 2/Cpd 1 at 62 g a.i./ha, alone or + atrazine 1500 or metolachlor 2500
# [19] = 44 DAA, Cpd 2/Cpd 1 at 125 g a.i./ha, alone or + atrazine 1500 or metolachlor 2500
# [20] = 62 DAA, Cpd 2/Cpd 1 at 62 g a.i./ha, alone or + atrazine 1500 or metolachlor 2500
# [21] = 62 DAA, Cpd 2/Cpd 1 at 125 g a.i./ha, alone or + atrazine 1500 or metolachlor 2500
# [22] = 91 DAA, Cpd 2/Cpd 1 at 62 g a.i./ha, alone or + atrazine 1500 or metolachlor 2500
# [23] = 91 DAA, Cpd 2/Cpd 1 at 125 g a.i./ha, alone or + atrazine 1500 or metolachlor 2500
smiles,measurement,setting,value
"CCNc1nc(Cl)nc(NC(C)C)n1 [Atrazine, atrazine, reference compound]",AMARE Obs,redroot pigweed (AMARE); 28 DAA,100
same,AMARE Obs,redroot pigweed (AMARE); 56 DAA,93
same,IPOHE Obs,[1]; 19 DAA,45%
same,IPOHE Obs,[1]; 29 DAA,100%
same,IPOHE Obs,[1]; 56 DAA,95%
same,BRADC Obs,Surinam grass (BRADC); [9],40
same,BRADC Obs,Surinam grass (BRADC); [10],20
same,BRADC Obs,Surinam grass (BRADC); [11],0
same,BRADC Obs,Surinam grass (BRADC); [12],0
same,BRADC Obs,Surinam grass (BRADC); [13],0
same,ZEAMD Obs,corn (ZEAMD) [2]; 28 DAA,0
same,ZEAMD Obs,corn (ZEAMD) [2]; 56 DAA,0
same,AMATA Obs,common waterhemp (AMATA),83%
same,ZEAMD Obs,corn (ZEAMD) [3],0%
same,IPOGF Obs,[4]; [9],97
same,IPOGF Obs,[4]; [10],97
same,IPOGF Obs,[4]; [11],70
same,IPOGF Obs,"[4]; 62 DAA, 1500 g a.i./ha, scale 0 to 100",50
same,IPOGF Obs,"[4]; 91 DAA, 1500 g a.i./ha, scale 0 to 100",40
same,POLPY Obs,[5]; 28 DAA,93
same,POLPY Obs,[5]; 56 DAA,100
same,CHEAL Obs,[6]; 14 DAA,100%
same,CHEAL Obs,[6]; 28 DAA,100%
same,SETFA Obs,giant foxtail (SETFA),23%
same,ZEAMD Obs,corn (ZEAMD) [7]; 19 DAA,5%
same,ZEAMD Obs,corn (ZEAMD) [7]; 29 DAA,2%
same,ZEAMD Obs,corn (ZEAMD) [7]; 56 DAA,3%
same,BIDPI Obs,common blackjack (BIDPI); [9],100
same,BIDPI Obs,common blackjack (BIDPI); [10],97
same,BIDPI Obs,common blackjack (BIDPI); [11],80
same,BIDPI Obs,common blackjack (BIDPI); [12],70
same,BIDPI Obs,common blackjack (BIDPI); [13],40
same,BRAPL Obs,alexandergrass (BRAPL); [9],75
same,BRAPL Obs,alexandergrass (BRAPL); [10],50
same,BRAPL Obs,alexandergrass (BRAPL); [11],50
same,BRAPL Obs,alexandergrass (BRAPL); [12],0
same,BRAPL Obs,alexandergrass (BRAPL); [13],0
same,CHEAL Obs,[8]; 28 DAA,100
same,CHEAL Obs,[8]; 56 DAA,100
"Nc1nc(C2CC2)nc(C(=O)O)c1Cl [Compound 1, 6-amino-5-chloro-2-cyclopropyl-4-pyrimidinecarboxylic acid]",BRADC Obs,Surinam grass (BRADC); [14],20
same,BRADC Obs,Surinam grass (BRADC); [15],40
same,BRADC Obs,Surinam grass (BRADC); [16],20
same,BRADC Obs,Surinam grass (BRADC); [17],50
same,BRADC Obs,Surinam grass (BRADC); [18],0
same,BRADC Obs,Surinam grass (BRADC); [19],40
same,BRADC Obs,Surinam grass (BRADC); [20],0
same,BRADC Obs,Surinam grass (BRADC); [21],0
same,BRADC Obs,Surinam grass (BRADC); [22],0
same,BRADC Obs,Surinam grass (BRADC); [23],0
same,IPOGF Obs,[4]; [14],20
same,IPOGF Obs,[4]; [15],40
same,IPOGF Obs,[4]; [16],40
same,IPOGF Obs,[4]; [17],80
same,IPOGF Obs,"[4]; 44 DAA, 62 g a.i./ha, scale 0 to 100",60
same,IPOGF Obs,"[4]; 44 DAA, 125 g a.i./ha, scale 0 to 100",80
same,IPOGF Obs,"[4]; 62 DAA, 62 g a.i./ha, scale 0 to 100",0
same,IPOGF Obs,"[4]; 62 DAA, 125 g a.i./ha, scale 0 to 100",75
same,IPOGF Obs,"[4]; 91 DAA, 62 g a.i./ha, scale 0 to 100",0
same,IPOGF Obs,"[4]; 91 DAA, 125 g a.i./ha, scale 0 to 100",60
same,BIDPI Obs,common blackjack (BIDPI); [14],60
same,BIDPI Obs,common blackjack (BIDPI); [15],80
same,BIDPI Obs,common blackjack (BIDPI); [16],60
same,BIDPI Obs,common blackjack (BIDPI); [17],80
same,BIDPI Obs,common blackjack (BIDPI); [18],40
same,BIDPI Obs,common blackjack (BIDPI); [19],80
same,BIDPI Obs,common blackjack (BIDPI); [20],40
same,BIDPI Obs,common blackjack (BIDPI); [21],60
same,BIDPI Obs,common blackjack (BIDPI); [22],0
same,BIDPI Obs,common blackjack (BIDPI); [23],70
same,BRAPL Obs,alexandergrass (BRAPL); [14],40
same,BRAPL Obs,alexandergrass (BRAPL); [15],40
same,BRAPL Obs,alexandergrass (BRAPL); [16],20
same,BRAPL Obs,alexandergrass (BRAPL); [17],60
same,BRAPL Obs,alexandergrass (BRAPL); [18],0
same,BRAPL Obs,alexandergrass (BRAPL); [19],40
same,BRAPL Obs,alexandergrass (BRAPL); [20],0
same,BRAPL Obs,alexandergrass (BRAPL); [21],0
same,BRAPL Obs,alexandergrass (BRAPL); [22],0
same,BRAPL Obs,alexandergrass (BRAPL); [23],0
O=C(O)CNCP(=O)(O)O [Glyphosate],CHEAL Obs,[6]; 14 DAA,100%
same,CHEAL Obs,[6]; 28 DAA,100%
"CCc1cccc(C)c1N(C(=O)CCl)[C@@H](C)COC [S-Metolachlor, S-metolachlor, reference compound]",AMARE Obs,redroot pigweed (AMARE); 28 DAA,100
same,AMARE Obs,redroot pigweed (AMARE); 56 DAA,80
same,IPOHE Obs,[1]; 19 DAA,10%
same,IPOHE Obs,[1]; 29 DAA,25%
same,IPOHE Obs,[1]; 56 DAA,3%
same,ZEAMD Obs,corn (ZEAMD) [2]; 28 DAA,0
same,ZEAMD Obs,corn (ZEAMD) [2]; 56 DAA,0
same,AMATA Obs,common waterhemp (AMATA),70%
same,ZEAMD Obs,corn (ZEAMD) [3],0%
same,POLPY Obs,[5]; 28 DAA,57
same,POLPY Obs,[5]; 56 DAA,20
same,SETFA Obs,giant foxtail (SETFA),63%
same,ZEAMD Obs,corn (ZEAMD) [7]; 19 DAA,0%
same,ZEAMD Obs,corn (ZEAMD) [7]; 29 DAA,3%
same,ZEAMD Obs,corn (ZEAMD) [7]; 56 DAA,5%
same,CHEAL Obs,[8]; 28 DAA,95
same,CHEAL Obs,[8]; 56 DAA,23
